Assays:
FFRP pot1216151 = test: Gel filtration analysis of changes in assemblies of the FFRP induced by amino acids and metabolic intermediates; type: binding, Pyrococcus sp. OT3; conditions: for gel filtration peak that increased: FFRP monomer approximately 100 μM, at least 30 minutes at room temperature, UV 220 nm; for concluded effect on assembling of the protein: gel filtration
Protocol: Changes in assemblies of the FFRP pot1216151 induced by interaction with amino acids and metabolic intermediates were analyzed in solution using gel filtration.
Gel filtration was carried out at a flow rate 1 ml/min, using a matrix (Protein Pak 125, 7.8×300 mm, Waters) and a 50 mM Tris-HCl buffer (pH 7.0) containing 300 mM sodium chloride. Flow of the protein was monitored by measuring the UV absorbance at 220 nm (LC Module I plus system, Waters). The FFRP pot1216151 purified by method 2, i.e., the rigorous method, was dissolved in 50 mM Tris-HCl buffer (pH 7.0) containing 200 mM sodium chloride, and kept at −80° C. until it was diluted by 10-fold with a 50 mM Tris-HCl buffer (pH 7.0) containing 300 mM sodium chloride, and mixed with each potential ligand for at least 30 minutes at room temperature (about 25° C.). In the mixture, the monomer concentration of the FFRP was approximately 100 μM.

FFRP (pot1216151) = test: Changes in crystal structure (depolarization) of FFRP crystals soaked in amino acid solutions; type: binding, Pyrococcus sp. OT3; conditions: crystals soaked in solution of one amino acid, 10 mM
Protocol: It has been known that the regularity inside a crystal might be affected, if the structure of the protein changes upon interaction with a ligand which is incorporated from outside the crystal, thereby depolarizing the crystal. Crystals of the FFRP (pot1216151) were soaked into solutions, each containing one of twenty amino acids at the same concentration 10 mM. […] With the other amino acids, no change was observed.

E. coli Lrp = E. coli Lrp (Escherichia coli, UniProt P0ACJ0); conditions: Marasco et al., 1994; cited from earlier work
Sequence of E. coli Lrp (P0ACJ0 2-164): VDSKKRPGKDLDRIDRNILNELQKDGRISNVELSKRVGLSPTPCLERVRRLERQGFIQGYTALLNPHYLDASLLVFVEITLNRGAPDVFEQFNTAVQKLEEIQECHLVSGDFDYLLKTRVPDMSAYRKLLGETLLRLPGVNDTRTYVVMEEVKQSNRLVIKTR

Structure (SMILES)	gel filtration peak that increased (FFRP pot1216151; amino acid 1 mM)	concluded effect on assembling of the protein (FFRP pot1216151; amino acid 1 mM)	gel filtration peak that increased (FFRP pot1216151; metabolic intermediate 10 mM)	change of the FFRP crystal (depolarization) on soaking (FFRP (pot1216151))	concluded effect on assembling of the protein (FFRP pot1216151; metabolic intermediate 10 mM)	effect of leucine on the FFRP assembly (E. coli Lrp)
N=C(N)NCCC[C@H](N)C(=O)O [arginine]	the fourth peak increased	accelerate disassembling of the protein	–	–	–	–
CC(=O)C(=O)O [pyruvic acid]	–	–	no significant effect	–	–	–
CSCC[C@H](N)C(=O)O [methionine]	the fourth peak increased	accelerate disassembling of the protein	–	the crystals depolarized after several hours	–	–
CC[C@H](C)[C@H](N)C(=O)O [isoleucine]	the second peak increased	accelerates assembling of the protein	–	the crystals depolarized after several hours	–	–
C[C@@H](O)[C@H](N)C(=O)O [threonine]	the fourth peak increased	accelerate disassembling of the protein	–	–	–	–
O=C(O)CC(=O)C(=O)O [oxaloacetic acid]	–	–	the third peak increased	–	stabilizing intermediate assemblies	–
N[C@@H](Cc1ccccc1)C(=O)O [phenylalanine]	the fourth peak increased	accelerate disassembling of the protein	–	–	–	–
CC(C)C[C@H](N)C(=O)O [leucine]	the fourth peak increased	accelerate disassembling of the protein	–	the crystals depolarized after several hours	–	disassembling these FFRPs
C[C@H](N)C(=O)O [alanine]	the fourth peak increased	accelerate disassembling of the protein	–	–	–	–
O=C(O)CC(O)C(=O)O (stereo not drawn) [malic acid]	–	–	the third peak increased	–	stabilizing intermediate assemblies	–
CC(C)[C@H](N)C(=O)O [valine]	the third peak increased	stabilizing intermediate assemblies	–	the crystals depolarized after several hours	–	–
O=C(O)C(O)COP(=O)(O)O (stereo not drawn) [3-phosphoglyceric acid]	–	–	no significant effect	–	–	–
